These are literature values, as cited in paper PMC5292677 (Leukemia, 2016).

The structures appear in SMILES notation. Like-named read-outs stand apart in the source and are kept apart here.

The data set relates to patients with MF. The note with it: cited from earlier work.

Take `Cc1cnc(Nc2ccc(OCCN3CCCC3)cc2)nc1Nc1cccc(S(=O)(=O)NC(C)(C)C)c1` [fedratinib]: the “Change in allele burden” value is listed as “no meaningful change in allele burden”. The “CRP and IL-6 levels” value (patients treated, no reference given) is “CRP downregulation was reported without significant IL-6 reduction”. As for `N#CCNC(=O)c1ccc(-c2ccnc(Nc3ccc(N4CCOCC4)cc3)n2)cc1` [momelotinib], the “Change in allele burden” value is recorded as “no meaningful change in allele burden”. Take `C1=C/COCc2cc(ccc2OCCN2CCCC2)Nc2nccc(n2)-c2cccc(c2)COC/1` [pacritinib]: the Myelosuppression entry is listed as “lack of myelosuppression”. On to `N#CC[C@H](C1CCCC1)n1cc(-c2ncnc3[nH]ccc23)cn1` [ruxolitinib], for which the TNFα level entry (following 4 weeks' treatment) is listed as “downregulated”. Moreover, the “Change in allele burden” value (long-term treatment) is “only a modest reduction”.
